Read-outs that look alike come from different tables or passages of the source.
Experiments:
[1] = system: U251; test: SRB 48 h growth assay, CNS U251; format: cell-based, human; conditions: for GI50 / CC50: Homo sapiens; for CC50: U-251, read-out: Log10 LC50 (converted)
[2] = system: eight renal cancer cell line (786-0, A498, ACHN, CAKI-1, SN12C, TK-10, UO-31 and RXF 393); test: in vitro anticancer activity, renal panel; format: cell-based; conditions: Homo sapiens; eight renal cancer cell lines, exposure at least 48 h; read-out: in vitro anticancer activity, range over panel
[3] = system: HCT-15; test: SRB 48 h growth assay, Colon HCT-15; format: cell-based, human; conditions: HCT-15, Colon; for GI50 / CC50: Homo sapiens; for CC50: read-out: Log10 LC50 (converted)
[4] = system: MALME-3M; test: SRB 48 h growth assay, Melanoma MALME-3M; format: cell-based, human; conditions: for GI50 / CC50: Homo sapiens; for CC50: read-out: Log10 LC50 (converted)
[5] = system: NCI-H460; test: SRB 48 h growth assay, Non-small Cell Lung NCI-H460; format: cell-based, human; conditions: for GI50 / LC50: Homo sapiens; for LC50: read-out: Log10 LC50 (converted)
[6] = system: UO-31; test: SRB 48 h growth assay, Renal UO-31; format: cell-based, human; conditions: UO-31, Renal; for GI50 / CC50: Homo sapiens; for CC50: read-out: Log10 LC50 (converted)
[7] = system: IGROV1; test: SRB 48 h growth assay, Ovarian IGROV1; format: cell-based, human; conditions: for GI50 / CC50: Homo sapiens; for CC50: IGROV-1, read-out: Log10 LC50 (converted)
[8] = system: SK-MEL-28; test: SRB 48 h growth assay, Melanoma SK-MEL-28; format: cell-based, human; conditions: SK-MEL-28, Melanoma; for GI50 / CC50: Homo sapiens; for CC50: read-out: Log10 LC50 (converted)
[9] = system: T-47D; test: SRB 48 h growth assay, Breast T-47D; format: cell-based, human; conditions: for GI50 / CC50: Homo sapiens, T47D; for CC50: read-out: Log10 LC50 (converted)
[10] = system: SR; test: SRB 48 h growth assay, Leukemia SR; format: cell-based, human; conditions: for GI50 / CC50: Homo sapiens; for CC50: read-out: Log10 LC50 (converted)
[11] = system: A498; test: SRB 48 h growth assay, Renal A498; format: cell-based, human; conditions: for GI50 / CC50: Homo sapiens; for CC50: read-out: Log10 LC50 (converted)
[12] = system: CAKI-1; test: SRB 48 h growth assay, Renal CAKI-1; format: cell-based, human; conditions: CAKI-1, Renal; for GI50 / CC50: Homo sapiens; for CC50: read-out: Log10 LC50 (converted)
[13] = system: SF-539; test: SRB 48 h growth assay, CNS SF-539; format: cell-based, human; conditions: SF-539, CNS; for GI50 / CC50: Homo sapiens; for CC50: read-out: Log10 LC50 (converted)
[14] = system: HCC-2998; test: SRB 48 h growth assay, Colon HCC-2998; format: cell-based, human; conditions: HCC-2998, Colon; for GI50 / CC50: Homo sapiens; for CC50: read-out: Log10 LC50 (converted)
[15] = U-251, read-out: Growth Inhibition GI50
[16] = U-251, read-out: Log10 GI50 (converted)
[17] = read-out: Growth Inhibition GI50
[18] = read-out: Log10 GI50 (converted)
[19] = IGROV-1, read-out: Growth Inhibition GI50
[20] = IGROV-1, read-out: Log10 GI50 (converted)

In the case of `C#Cc1ccc(-n2c(/C=C/c3ccc(O)cc3)nc3ncccc3c2=O)cc1` [4b, (E)-3-(4-Ethynylphenyl)-2-(4-hydroxystyryl)pyrido[2,3-d]pyrimidin-4(3H)-one], the “Log10 TGI50” value [1] is reported as greater than −4.00, the GI50 [1, 15] is reported as 4.02 µM and the GI50 [1, 16] is reported as 3.98 µM. For the same compound, the CC50 [1] was greater than 100 µM, the GI50 [2] was 2.63 to 20.5 µM and the “Log10 TGI50” value [3] was greater than −4.00. It also gave a GI50 [3, 17] of 4.65 µM, a GI50 [3, 18] of 4.68 µM and a CC50 [3] greater than 100 µM. The “Log10 TGI50” value [4] was greater than −4.00, the GI50 [4, 17] was 5.13 µM and the GI50 [4, 18] was 5.13 µM. The CC50 [4] was greater than 100 µM, the “Log10 TGI50” value [5] was −4.85 and the GI50 [5, 17] was 3.33 µM. For the same compound, the GI50 [5, 18] was 3.31 µM, the LC50 [5] was greater than 100 µM and the GI50 [6, 17] was 3.79 µM. For the same compound, the GI50 [6, 18] was 3.8 µM, the CC50 [6] was greater than 100 µM and the “Log10 TGI50” value [6] was −4.47. The “Log10 TGI50” value [7] was −4.45, the GI50 [7, 19] was 4.69 µM and the GI50 [7, 20] was 4.68 µM. It also gave a CC50 [7] greater than 100 µM, a GI50 [8, 17] of 5.97 µM and a GI50 [8, 18] of 6.03 µM. For the same compound, the CC50 [8] was greater than 100 µM, the “Log10 TGI50” value [8] was greater than −4.00 and the “Log10 TGI50” value [9] was greater than −4.00. It also gave a GI50 [9, 17] of 4.63 µM, a GI50 [9, 18] of 4.68 µM and a CC50 [9] greater than 100 µM. The “Log10 TGI50” value [10] was greater than −4.00, the GI50 [10, 17] was 3.54 µM and the GI50 [10, 18] was 3.55 µM. For the same compound, the CC50 [10] was greater than 100 µM, the “Log10 TGI50” value [11] was −5.16 and the GI50 [11, 17] was 2.48 µM. The GI50 [11, 18] was 2.45 µM, the CC50 [11] was greater than 100 µM and the “Log10 TGI50” value [12] was greater than −4.00. It also gave a GI50 [12, 17] of 4.15 µM, a GI50 [12, 18] of 4.17 µM and a CC50 [12] greater than 100 µM. It also gave a GI50 [13, 17] of 2.12 µM, a GI50 [13, 18] of 2.14 µM and a CC50 [13] greater than 74.1 µM. For the same compound, the “Log10 TGI50” value [13] was −5.21, the “Log10 TGI50” value [14] was greater than −4.00 and the GI50 [14, 17] was 25.7 µM. The GI50 [14, 18] was 25.7 µM and the CC50 [14] was greater than 100 µM.

`C#Cc1ccc(-n2c(/C=C/c3ccc(C(F)(F)F)cc3)nc3ncccc3c2=O)cc1` [4c, (E)-3-(4-Ethynylphenyl)-2-(4-(trifluoromethyl)styryl)pyrido[2,3-d]pyrimidin-4(3H)-one] was tested, and the “Log10 TGI50” value [1] was −5.50, the GI50 [1, 15] was 1.67 µM and the GI50 [1, 16] was 1.66 µM. The CC50 [1] was 5.89 µM, the GI50 [2] was 1.69 to 4.08 µM and the “Log10 TGI50” value [3] was −5.43. It also gave a GI50 [3, 17] of 1.74 µM, a GI50 [3, 18] of 1.74 µM and a CC50 [3] of 7.76 µM. The “Log10 TGI50” value [4] was −5.45, the GI50 [4, 17] was 1.64 µM and the GI50 [4, 18] was 1.66 µM. For the same compound, the CC50 [4] was 7.76 µM, the “Log10 TGI50” value [5] was −5.38 and the GI50 [5, 17] was 1.98 µM. It also gave a GI50 [5, 18] of 2 µM, an LC50 [5] of 8.71 µM and a GI50 [6, 17] of 1.43 µM. The GI50 [6, 18] was 1.45 µM, the CC50 [6] was 9.33 µM and the “Log10 TGI50” value [6] was −5.44. For the same compound, the “Log10 TGI50” value [7] was −5.40, the GI50 [7, 19] was 1.96 µM and the GI50 [7, 20] was 1.95 µM. For the same compound, the CC50 [7] was 8.32 µM, the GI50 [8, 17] was 1.78 µM and the GI50 [8, 18] was 1.78 µM. For the same compound, the CC50 [8] was 6.03 µM, the “Log10 TGI50” value [8] was −5.49 and the “Log10 TGI50” value [9] was −5.30. For the same compound, the GI50 [9, 17] was 2.02 µM, the GI50 [9, 18] was 2 µM and the CC50 [9] was 28.2 µM. For the same compound, the “Log10 TGI50” value [10] was −5.09, the GI50 [10, 17] was 2 µM and the GI50 [10, 18] was 2 µM. The CC50 [10] was greater than 100 µM, the “Log10 TGI50” value [11] was −5.24 and the GI50 [11, 17] was 2.34 µM. The GI50 [11, 18] was 2.4 µM, the CC50 [11] was 24 µM and the “Log10 TGI50” value [12] was −5.21. For the same compound, the GI50 [12, 17] was 2.26 µM, the GI50 [12, 18] was 2.24 µM and the CC50 [12] was greater than 100 µM. For the same compound, the GI50 [13, 17] was 1.68 µM, the GI50 [13, 18] was 1.66 µM and the CC50 [13] was 6.03 µM. For the same compound, the “Log10 TGI50” value [13] was −5.50, the “Log10 TGI50” value [14] was −5.46 and the GI50 [14, 17] was 1.96 µM. The GI50 [14, 18] was 1.95 µM and the CC50 [14] was 6.17 µM.
